Values of other authors in patent US10155050B2, “Cross-linked star-shaped self-assembled polypeptides and its use as carriers in biomedical applications” (CENTRO DE INVESTIGACION PRINCIPE FELIPE, priority 2015, dated 2018).

Details: FVB mice

inulin
renal clearance value: around 20 mL/h
